ChEMBL document CHEMBL1128314, “Absolute configuration of (+)-[fluoro(hydroxyphenylphosphinyl)methyl]-phosphonic acid, a specific inhibitor of Na(+)-gradient-dependent Na(+)-phosphate cotransport across renal brush border membrane, by X-ray crystallographic analysis of its (-)-quinine salt” (J Med Chem, 1995)

Species: Rattus norvegicus
Assay: The compound was tested for inhibition of Sodium-Phosphate co-transport in rat renal Brush border membrane
Type: functional

O=P(O)(O)C(F)P(=O)(O)c1ccccc1 (stereo unspecified)
Ki: 360 µM
